# Toxic doses and inconclusive results are not listed.
# Tested on: P388 leukemia ip, CD2F1 mice, survival T/C
# Assay: NCI In Vivo Anticancer Drug Screen. Data for tumor model P388 Leukemia (intraperitoneal) in CD2F1 (CDF1) mice
# Conditions: endpoint: median survival time, higher = longer survival
# In short: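 Mice carrying the transplanted tumor received test compound or vehicle. Survival was recorded in each group, and the value is the treated-group measurement divided by that of the vehicle-treated control group.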
# [1] = dose: 25.0 mg/kg/injection, schedule: Q04DX003 (ip), vehicle: saline with Tween-80
# [2] = dose: 100.0 mg/kg/injection, schedule: Q04DX003 (ip), vehicle: saline with Tween-80
compound,measurement,setting,value
Cn1c(O)c(C2=NC(C(=O)O)CS2)c(=O)n(C)c1=O (stereo not drawn),T/C,"dose: 60.0 mg/kg/injection, schedule: Q01DX005 (ip), vehicle: saline",100 % of control
same,T/C,"dose: 120.0 mg/kg/injection, schedule: Q01DX005 (ip), vehicle: saline",101 % of control
same,T/C,"dose: 240.0 mg/kg/injection, schedule: Q01DX005 (ip), vehicle: saline",101 % of control
[CH3][Sn]([CH3])([CH3])[O]C(=O)CNC(=O)c1ccccc1,T/C,"dose: 1.56 mg/kg/injection, schedule: Q01DX001 (ip), vehicle: Klucel (hydroxypropylcellulose) (HPC)",103 % of control
same,T/C,"dose: 3.12 mg/kg/injection, schedule: Q01DX001 (ip), vehicle: Klucel (hydroxypropylcellulose) (HPC)",103 % of control
O=C1OC[C@@H]2[C@H]1[C@H]1O[C@@H]2c2cc3ccccc3cc21,T/C,"dose: 60.0 mg/kg/injection, schedule: Q01DX005 (ip), vehicle: saline with Tween-80",104 % of control
same,T/C,"dose: 120.0 mg/kg/injection, schedule: Q01DX005 (ip), vehicle: saline with Tween-80",101 % of control
same,T/C,"dose: 240.0 mg/kg/injection, schedule: Q01DX005 (ip), vehicle: saline with Tween-80",101 % of control
CC1CCC2CC(=O)NC(=O)CC12 (stereo not drawn),T/C,"dose: 6.25 mg/kg/injection, schedule: Q04DX003 (ip), vehicle: saline with Tween-80",100 % of control
same,T/C,"dose: 12.5 mg/kg/injection, schedule: Q04DX003 (ip), vehicle: saline with Tween-80",100 % of control
same,T/C,[1],104 % of control
CCOc1c(N=Nc2ccccc2)c(C)nn1C(N)=S,T/C,"dose: 60.0 mg/kg/injection, schedule: Q01DX005 (ip), vehicle: Klucel + Tween-80",95 % of control
same,T/C,"dose: 120.0 mg/kg/injection, schedule: Q01DX005 (ip), vehicle: Klucel + Tween-80",102 % of control
same,T/C,"dose: 240.0 mg/kg/injection, schedule: Q01DX005 (ip), vehicle: Klucel + Tween-80",95 % of control
N#Cc1cnc2nc1NCCCCCCC2,T/C,[1],105 % of control
same,T/C,"dose: 50.0 mg/kg/injection, schedule: Q04DX003 (ip), vehicle: saline with Tween-80",98 % of control
same,T/C,[2],100 % of control
CCCCc1c(OC)cc(O)c2c1C(=O)c1[nH]c(C(=O)O)c(O)c(=O)c1C2=O,T/C,"dose: 7.5 mg/kg/injection, schedule: Q01DX009 (ip), vehicle: Klucel (hydroxypropylcellulose) (HPC)",98 % of control
same,T/C,"dose: 15.0 mg/kg/injection, schedule: Q01DX009 (ip), vehicle: Klucel (hydroxypropylcellulose) (HPC)",100 % of control
same,T/C,"dose: 30.0 mg/kg/injection, schedule: Q01DX009 (ip), vehicle: Klucel (hydroxypropylcellulose) (HPC)",95 % of control
NC(=O)CC1(O)CCCCC1,T/C,"dose: 25.0 mg/kg/injection, schedule: Q01DX009 (ip), vehicle: saline",100 % of control
same,T/C,"dose: 50.0 mg/kg/injection, schedule: Q01DX009 (ip), vehicle: saline",100 % of control
same,T/C,"dose: 100.0 mg/kg/injection, schedule: Q01DX009 (ip), vehicle: saline",100 % of control
O=C(CC(=O)C(F)(F)C(F)(F)C(F)(F)F)c1csc2ccccc12,T/C,[2],109 % of control
CC1CN1c1cc(O)c(N2CC2C)cc1O (stereo not drawn),T/C,"dose: 0.29 mg/kg/injection, schedule: Q01DX009 (ip), vehicle: saline with Tween-80",100 % of control
same,T/C,"dose: 0.44 mg/kg/injection, schedule: Q01DX009 (ip), vehicle: saline with Tween-80",118 % of control
same,T/C,"dose: 0.63 mg/kg/injection, schedule: Q04DX003 (ip), vehicle: saline with Tween-80",109 % of control
same,T/C,"dose: 0.66 mg/kg/injection, schedule: Q01DX009 (ip), vehicle: saline with Tween-80",122 % of control
same,T/C,"dose: 2.5 mg/kg/injection, schedule: Q04DX003 (ip), vehicle: saline with Tween-80",150 % of control
same,T/C,"dose: 4.4 mg/kg/injection, schedule: Q04DX003 (ip), vehicle: saline with Tween-80",228 % of control
same,T/C,"dose: 5.0 mg/kg/injection, schedule: Q04DX003 (ip), vehicle: saline with Tween-80",159 % of control
same,T/C,"dose: 6.6 mg/kg/injection, schedule: Q04DX003 (ip), vehicle: saline with Tween-80",238 % of control
O=c1ccc(N=Nc2cccc([N+](=O)[O-])c2)ccc1O,T/C,"dose: 25.0 mg/kg/injection, schedule: Q01DX009 (ip), vehicle: saline with Tween-80",107 % of control
same,T/C,"dose: 50.0 mg/kg/injection, schedule: Q01DX009 (ip), vehicle: saline with Tween-80",104 % of control
same,T/C,"dose: 100.0 mg/kg/injection, schedule: Q01DX009 (ip), vehicle: saline with Tween-80",104 % of control
CN1CC[C@]23c4c5ccc(O)c4OC2C(O)C=C[C@H]3[C@H]1C5 (stereo partly drawn),T/C,"dose: 100.0 mg/kg/injection, schedule: Q01DX001 (ip), vehicle: Klucel (hydroxypropylcellulose) (HPC)",103 % of control
same,T/C,"dose: 200.0 mg/kg/injection, schedule: Q01DX001 (ip), vehicle: Klucel (hydroxypropylcellulose) (HPC)",100 % of control
same,T/C,"dose: 400.0 mg/kg/injection, schedule: Q01DX001 (ip), vehicle: Klucel (hydroxypropylcellulose) (HPC)",110 % of control
